From patent US6582961B1, “Methods of protecting plants from pathogens” (priority 1998, dated 2003)

Legend:
Format in all cases: in vivo, Phaseolus vulgaris
[1] = tested on: PR-1a gene RNA expression; assay: Northern blot of PR-1a RNA in sprayed red kidney bean plants
Method: FIG. 1 is a northern blot of RNA probed for expression of PR-1a protein. RNA was extracted from 14 day-old red kidney bean plants 24 hours after leaves of the plants were sprayed until wet with one of five treatments. Lane 1: treatment with 3,500 ppm of peracetic acid (“PAA”). Lane 2: treatment with 10,000 ppm of PAA. Lane 3: treatment with 3,500 ppm of PAA plus 200 ppm of salicylic acid/humic acid mixture (see Example 1; hereafter “inducer mixture”). Lane 4: treatment with 10,000 ppm of PAA and 200 ppm of inducer mixture. Lane 5: treatment with 200 ppm inducer mixture, without PAA.
Fourteen-day old red kidney bean plants (Phaseolus vulgaris) were sprayed from an overhead boom until the leaves were wet and spray began to run off them. […]
The plants were then left for 24 hours, after which the leaves were subjected to extraction of their total RNA by the procedure described in Logemann, J., et al, “Improved method for the isolation of RNA from plant tissues.” Anal Biochem. 163:16-20 (1987). […] Hybridization was observed and analyzed by chemiluminescent detection of the bound probes using the “Genius System,” (Boehringer Mannheim Corporation, Indianapolis, Ind.), following the manufacturer's directions. […]

[2] = tested on: hydroxyproline-rich glycoprotein (HYP) RNA; assay: Northern blot of hydroxyproline-rich glycoprotein (HYP) RNA in sprayed bean plants
Method: FIG. 3 is a northern blot of RNA probed for expression of hydroxyproline-rich glycoproteins (“HPRG” or “HYP”). RNA was extracted from 14 day-old red kidney bean plants 24 hours after leaves of the plants were sprayed until wet with one of five treatments. Lane 1: water-only control. Lane 2: treatment with 3,500 ppm of PAA. Lane 3: treatment with 10,000 ppm of PAA. Lane 4: treatment with 3,500 ppm of PAA plus 200 ppm of inducer mixture. Lane 5: treatment with 10,000 ppm of PAA plus 200 ppm of inducer mixture. Lane 6: treatment with 200 ppm of inducer mixture, without presence of PAA.
Bean plants were grown and treated as in Example 2. Total RNA was extracted and gels were loaded, run, and analyzed following the procedures discussed in Example 2. Probes for HYP were prepared following the procedures set forth in Blee and Anderson, supra.

[3] = tested on: phenylalanine ammonia lyase (PAL) mRNA; assay: Northern blot of phenylalanine ammonia lyase (PAL) mRNA in sprayed bean plants
Method: FIG. 2 is a northern blot of RNA probed for expression of phenylalanine ammonia lyase (“PAL”). RNA was extracted from 14 day-old red kidney bean plants 24 hours after leaves of the plants were sprayed until wet with one of four treatments. Lane 1: water-only control. Lane 2: treatment with 3,500 ppm of PAA. Lane 3: treatment with 10,000 ppm of PAA. Lane 4: treatment with 3,500 ppm of PAA plus 200 ppm of inducer mixture.
Bean plants were grown and treated in the same manner as in the previous Example, except that a water-only control was run, but not a test of systemic inducer without PAA. Total RNA was extracted and gels were loaded, run, and analyzed following the procedures discussed in previous Example, with the exception that no lane was run containing RNA from plants sprayed with a systemic inducer without an ROS present. Probe for PAL mRNA transcripts was prepared following the procedures set forth in Blee, K. A., and Anderson, A. J. “Defense-related transcript accumulation in Phaseolus vulgaris L. colonized by the arbuscular mycorrhizal fungus Glomus intraradices Schenck & Smith.” Plant Physiol. 110: 675-688 (1996).

CC(=O)OO [peracetic acid]
PR-1a gene RNA expression ([1]; peracetic acid 3,500 ppm, leaves sprayed, RNA after 24 hours, FIG. 1 lane 1): increased | PR-1a gene RNA expression ([1]; peracetic acid 10,000 ppm, 24 hours, FIG. 1 lane 2): higher amounts | RNA levels from HYP genes ([2]; peracetic acid 3,500 ppm, FIG. 3 lane 2): increase in RNA levels from HYP genes over that of the water control | RNA levels from HYP genes ([2]; peracetic acid 10,000 ppm, compared to 3,500 ppm, FIG. 3 lane 3): substantially more hybridizing RNA | mRNA for PAL genes ([3]; peracetic acid 3,500 ppm, 24 hours, FIG. 2 lane 2): increase in mRNA for PAL genes over that of the water control | mRNA for PAL genes ([3]; peracetic acid 10,000 ppm, compared to 3,500 ppm, FIG. 2 lane 3): substantial increase
